In one series the target is FAK (Homo sapiens, UniProt Q05397). Briefly: Kinase profiler screening, FAK. The class given is biochemical. The following applies: 1 μM compound, 10 μM ATP. How it is done:
Kinase Profiler Screening: Kinase specificity screening was performed with Invitrogen's SelectScreen® Kinase Profiling Services http://www.invitrogen.com/site/us/en/home/Products-and-Services/Services/Discoverv-Research/SelectScreen-Profiling-Service/SelectScreen-Kinase-Profiling-Service.html. The screening was performed with 1 μM compound, INT2-31, 10 μM ATP, and kinase substrates against ten recombinant kinases according to Z′-LYTET™ Kinase Assay. For PI3 kinase activity, 100 μM ATP, and kinase substrate were utilized with the Invitrogen Adapta® Universal Kinase Assay protocol. Tumor Growth in Nude Mice in vivo: Six week old athymic, female nude mice were purchased from Harlan Laboratory. The mice were maintained in the animal facility, and all experiments were performed in compliance with NIH animal-use guidelines and under an IACUC approved protocol. Melanoma cells were injected, 5×10^6 cells, subcutaneously. When the tumor size reached 100 mm^3, the INT2-31 was introduced by intraperitoneal injection at a dose of 15 mg/kg daily for 21 days. Tumor diameters were measured with calipers, and tumor volume in mm^3 was calculated using the formula [(width)^2×length]/2. At the end of experiment, tumor weight and volume were determined.

The subject of series [1] is esophageal patient #5 adenocarcinoma tumor. The series can be described thus: Esophageal patient #5 xenograft. It counts as in vivo, mice. From the text:
For tumor samples from human patients with esophageal or pancreatic cancer, the University of Florida IACUC approved the following protocol (IACUC Study #2000902767). A total of 25 patients, 10 with pancreatic cancer and 15 with esophageal cancer have been identified and implanted into nude mice. Initially small pieces (0.3×0.3×0.3 cm) from fresh pancreatic and esophageal human tumor samples were obtained from surgical specimens of patients operated at the University of Florida Shands Hospital, and implanted subcutaneously in-group of 2 mice for each patient. For esophageal cancer specimens, when one of them has reached 1.5 cc, it was excised and was cut into small pieces of (0.3×0.3×0.3 cm), and transplanted subcutaneously into another 10 mice. When tumors reached ˜100 mm^3, mice were randomized in the following 2 groups, with 5 mice in each group: • Group 1: Control: no treatment. • Group 2: INT2-31 (Compound 31): 50 mg/kg/day in 50 μL by i.p administration for 21 days.
Mice were euthanized 30-40 days after tumor innoculation and tumor and tissue collected. For inhibition of tumor growth in our subcutaneous model, tumor volumes (length×width×height×p/6) and body weights were determined daily including weekends and holidays, to monitor tumor growth and evaluate overall clinical condition, taking into account weight loss and indications of pain, distress, or abnormal behavior and physiology. Experiments were terminated when the mean control tumor volume was 1.5 cc (approximately 30-40 days).
Immunohistochemistry: Xenograft tumor tissue was fixed in 10% formalin and embedded in paraffin. For Ki-67 staining, samples underwent deparaffinization and antigen retrieval and incubated with the primary antibody, Ki-67 (Dako M7240), at 1:200 concentration overnight at 4° C. The tissues were stained with the chromogen DAB and counterstained with hematoxylin and 1% TBS.
Subsequently, we evaluated the inhibition of in vivo tumor growth of esophageal patient #5 specimen was evaluated. […]
Background: A xenograft is tissue or cells of one species grown in another, often human tumour cells in immunodeficient mice.

A further series relates to normal human melanocytes. Briefly: Cell viability (MTT), melanocytes. It counts as cell-based. The note with it: Melanocyte, Melonocyte, 72 hours, read-out: IC50 of INT2-31, cell viability. As for the experimental part:
(§1) Cell viability (MTT) and CFSE Proliferation assay: Cells were plated in 96-well plates and let adhere overnight. After cell treatment, cell viability was measured by 3-(4,5-dimethylthiazol-2-yl)-2,5-diphenyl tetrazolium bromide (MTT) assay (CellTiter 96® Aqueous, Promega, Madison, Wis.).
Cell viability and detachment assays: After cells were treated with siRNA transfection, cell viability was measured by 3-(4,5-dimethylthiazol2-yl)-2,5-diphenyl tetrazolium bromide (MTT) assay (CellTiter 96® AQueous, Promega, Madison, Wis.). Briefly, 20 μl of the tetrazolium compound was added to each well. The cells were then incubated at 37° C. for 1 h. The plate was read at 490 nm with a plate reader to determine the viability. In detachment assays, detached and attached cells were harvested separately and counted in a hemocytometer. The percentage of detachment was calculated by dividing the number of detached cells by the total number of cells. Apoptosis assays: After treatment, attached and detached cells were collected, counted and prepared for terminal uridine deoxynucleotidyl transferase (TUNEL) assay by utilizing an APO-BRDU kit (BD Pharmingen, San Diego, Calif.) according to the manufacturer's instructions. Stained cells were analyzed with a fluorescence-activated cell sorting-Calibur flow cytometer (BD Biosciences). […] Apoptotic cells were also analyzed by Hoechst staining. […]

Series [2] relates to FAK +/+ and FAK −/− mouse embryonic fibroblast. Briefly: MTT assay on FAK wildtype and null fibroblasts. It counts as cell-based. As for the experimental part:
as §1
Cell proliferation assay: Cell proliferation assay (Promega) using CellTiter 96 aqueous one solution was performed by adding a small amount of the One Solution Reagent directly to culture wells, incubating for 1-4 hours and then recording absorbance at 490 nm with a spectrophotometric plate reader. The quantity of formazan product as measured by the amount of 490 nm absorbance was directly proportional to the number of living cells in culture.
Cell viability and detachment assays: After cells were treated with siRNA transfection, cell viability was measured by 3-(4,5-dimethylthiazol2-yl)-2,5-diphenyl tetrazolium bromide (MTT) assay (CellTiter 96® AQueous, Promega, Madison, Wis.). Briefly, 20 μl of the tetrazolium compound was added to each well. The cells were then incubated at 37° C. for 1 h. The plate was read at 490 nm with a plate reader to determine the viability. In detachment assays, detached and attached cells were harvested separately and counted in a hemocytometer. The percentage of detachment was calculated by dividing the number of detached cells by the total number of cells. Apoptosis assays: After treatment, attached and detached cells were collected, counted and prepared for terminal uridine deoxynucleotidyl transferase (TUNEL) assay by utilizing an APO-BRDU kit (BD Pharmingen, San Diego, Calif.) according to the manufacturer's instructions. Stained cells were analyzed with a fluorescence-activated cell sorting-Calibur flow cytometer (BD Biosciences). Calculation of the percentage of apoptotic cells in the sample was completed with CellQuest software (BD Biosciences). Apoptotic cells were also analyzed by Hoechst staining. Hoechst 33342 ([…]) was added to the fixed cells and the specimens were mounted on glass coverslips. The slides were viewed under the Zeiss microscope for apoptotic nuclei. The percent of apoptotic cells was calculated as the ratio of apoptotic cells to total number of cells.
(Tetrazolium dyes change colour on reduction, which living cells bring about.)

The source of these data is US20120107323A1, “KINASE PROTEIN BINDING INHIBITORS” (University of Florida, priority 2009, published 2012).

Sequence of FAK (Q05397 whole entry): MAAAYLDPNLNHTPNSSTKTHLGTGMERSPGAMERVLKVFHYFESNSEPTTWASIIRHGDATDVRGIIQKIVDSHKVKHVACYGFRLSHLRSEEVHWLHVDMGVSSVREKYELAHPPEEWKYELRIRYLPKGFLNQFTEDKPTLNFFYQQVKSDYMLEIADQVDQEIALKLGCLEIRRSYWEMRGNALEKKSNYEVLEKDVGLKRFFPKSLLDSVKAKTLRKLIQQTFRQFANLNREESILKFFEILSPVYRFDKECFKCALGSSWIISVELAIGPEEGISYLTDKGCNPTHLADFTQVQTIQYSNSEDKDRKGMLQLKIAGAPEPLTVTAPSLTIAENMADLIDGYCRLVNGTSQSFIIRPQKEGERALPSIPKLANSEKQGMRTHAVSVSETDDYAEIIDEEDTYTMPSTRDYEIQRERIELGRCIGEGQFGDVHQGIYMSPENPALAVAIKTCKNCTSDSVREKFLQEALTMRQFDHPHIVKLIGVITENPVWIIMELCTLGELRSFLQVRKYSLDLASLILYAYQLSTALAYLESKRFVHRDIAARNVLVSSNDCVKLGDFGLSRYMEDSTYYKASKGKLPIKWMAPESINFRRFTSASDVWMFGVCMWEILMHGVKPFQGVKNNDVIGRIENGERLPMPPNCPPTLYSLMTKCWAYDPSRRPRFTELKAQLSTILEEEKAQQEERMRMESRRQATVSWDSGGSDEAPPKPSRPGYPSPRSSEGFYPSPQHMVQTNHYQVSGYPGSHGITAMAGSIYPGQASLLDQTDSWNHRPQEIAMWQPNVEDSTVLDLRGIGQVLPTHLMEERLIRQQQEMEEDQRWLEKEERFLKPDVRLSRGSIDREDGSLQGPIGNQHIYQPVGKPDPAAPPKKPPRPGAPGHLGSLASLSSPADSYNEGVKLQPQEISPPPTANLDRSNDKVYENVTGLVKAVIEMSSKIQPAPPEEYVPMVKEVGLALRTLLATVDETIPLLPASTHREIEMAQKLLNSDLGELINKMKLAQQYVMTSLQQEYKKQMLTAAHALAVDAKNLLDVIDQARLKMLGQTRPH

By IC50 is commonly meant the midpoint of a concentration-inhibition curve. Turning to `CSc1ncnc2c1ccn2C1O[C@H](COP(=O)(O)O)[C@@H](O)[C@H]1O` (stereo partly drawn) [INT2-31, 4-(Methylthio)-7-(5-O-phosphono-D-ribofuranosyl)-{7H-Pyrrolo[2,3-d]pyrimidine}], the “kinase activity of FAK” value on FAK is reported as “did not inhibit”. Moreover, the “body weights between animals in each group” value in series [1] (50 mg/kg daily intraperitoneal) is on record as “no significant difference”. Further, in series [1] (50 mg/kg daily intraperitoneal, 21 days, p<0.05), the “tumor growth compared to PBS control” value was “significant decrease”. In addition, in series [1] (50 mg/kg vs PBS group), the “percent of cells reactive to Ki67” value was “significantly decreased”. In the series with normal human melanocytes, the IC50 is 97.3 µM. Further, in series [2] (0.05 μM, 72-hour treatment), the “proliferation of FAK+/+ fibroblast cells” value was “reduced the proliferation” and the “proliferation of FAK−/− cells” value is “no effect”. Further, the “effect on FAK wildtype compared to null fibroblasts” value in series [2] (MTT, p<0.05) is recorded as “significantly more sensitive”.
